Assays:
[1] = Solubility studies (turbidity or clarity of the resultant solution); assay type: physicochemical; conditions: duloxetine present along with one or more cyclodextrin or derivatives, as physical admixture or complex
Procedure: Weighed amount of duloxetine hydrochloride was dispersed in required quantity of water at room temperature. To the above dispersion sodium bicarbonate, propylene glycol, sodium lauryl sulphate or Hydroxypropyl Beta-cyclodextrin was added in requisite amount as specified in Table 5.

[2] = water; cited from earlier work
[3] = acidic environment of gastrointestinal tract; cited from earlier work

CNCC[C@H](Oc1cccc2ccccc12)c1cccs1 [Duloxetine]
Solubility of duloxetine in presence of cyclodextrin [1]: significant increase in solubility
Aqueous solubility [2]: slightly soluble in water
Acid stability [3]: acid labile
